Laboratory results from ChEMBL document CHEMBL1139063, “Inhibitory effects of phloridzin dihydrate on the activity of mushroom (Agaricus bisporus) tyrosinase” (Bioorg Med Chem, 2007).

T1: Tyrosinase (Agaricus bisporus, UniProt O42713)
T1 sequence (O42713 whole entry): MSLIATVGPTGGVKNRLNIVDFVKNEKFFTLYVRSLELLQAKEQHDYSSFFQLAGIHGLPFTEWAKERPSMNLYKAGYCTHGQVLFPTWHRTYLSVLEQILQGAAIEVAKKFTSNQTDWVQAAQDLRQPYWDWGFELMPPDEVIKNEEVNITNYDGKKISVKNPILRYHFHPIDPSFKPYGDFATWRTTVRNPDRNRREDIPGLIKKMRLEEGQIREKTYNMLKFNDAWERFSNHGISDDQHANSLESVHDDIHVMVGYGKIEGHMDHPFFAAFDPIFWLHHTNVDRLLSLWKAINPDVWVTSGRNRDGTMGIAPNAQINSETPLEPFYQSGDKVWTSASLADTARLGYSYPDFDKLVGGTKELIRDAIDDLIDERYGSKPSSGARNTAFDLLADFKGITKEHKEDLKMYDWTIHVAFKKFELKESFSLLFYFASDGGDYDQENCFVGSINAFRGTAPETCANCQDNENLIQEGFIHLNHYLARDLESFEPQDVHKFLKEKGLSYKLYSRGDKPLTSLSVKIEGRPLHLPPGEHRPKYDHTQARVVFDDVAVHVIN

B1: Tyrosinase (Agaricus bisporus), O42713 (protein)
chain: T1 sequence (O42713 whole entry)

Tests used:
[1] = molecular target: T1, Tyrosinase; assay: Inhibition of diphenolase activity of mushroom tyrosinase
[2] = substrate: O=C(CCc1ccc(O)cc1)c1c(O)cc(O)cc1O[C@@H]1O[C@H](CO)[C@@H](O)[C@H](O)[C@H]1O; conditions: Agaricus bisporus
Description: Activity of mushroom tyrosinase diphenolase

Molecule	IC50 [1] [µM]	Ki [1] [µM]	Km [2] [µM]
O=C(CCc1ccc(O)cc1)c1c(O)cc(O)cc1O[C@@H]1O[C@H](CO)[C@@H](O)[C@H](O)[C@H]1O	110	64.3	–
B1	–	–	627
